Legend:
[1] = test system: normoglycemic rats; assay: Hypoglycemic activity in normal rats; type: in vivo; details: fasted normal Wistar rats; Glibenclamide 5 mg/kg per oral; reduction vs basal glucose, measured 1-6 hr, time of value not stated
Protocol: Hypoglycemic Activity in Normal Rats:
Wistar rats of either sex weighing 150-180 gms were fasted overnight and divided into control, standard and test groups each consisting of 6 rats. The standard drug, Glibenclamide, was administered in the dose of 5 mg/kg per oral to the rats. All test compounds were administered in the dose of 200 mg/kg per oral to the test groups. Both standard and test drugs were administered as 1% gum acacia suspension. Control group received vehicle only. Blood glucose levels were measured before drugs administration at 0 hr and at 1 hr, 2 hr, 4 hr and 6 hr after drugs administration. Percent reduction of blood glucose levels at different time intervals was calculated with reference to basal glucose levels. All the blood glucose estimations were done using GOD/POD method and were analyzed using Auto Blood Analyzer (Technicon RA-1000, Bayer Diagnostics, Ireland). The standard drug (Glibenclamide) has shown a percent inhibition of glucose 65.1 and all the test compounds (1 to 9 examples) have shown percent inhibition in range of 48.5 to 63.2 (FIG. 1)

[2] = test system: Streptozotocin induced diabetic rats; assay: Hypoglycemic activity in Streptozotocin induced diabetic rats; type: in vivo; details: Streptozotocin (50 mg/kg i.v.) diabetic Wistar rats; Glibenclamide 1 mg/kg daily for 14 days; vs reading before drug administration
Protocol: Hypoglycemic Activity in Streptozotocin Induced Diabetic Rats:
Wistar rats of either sex weighting 150-180 gms were used in this study and were divided into control, standard and test groups each consisting of 6 rats. Basal glucose levels were taken for all rats. Diabetes was induced by administering Streptozotocin in the dose of 50 mg/kg intravenously to the rats in all the groups. After a period of 48 hrs glucose levels were again measured and rats that have shown glucose levels of 400±20 mg/dl were selected. Glibenclamide (1 mg/kg) and the test compounds (50 mg/kg) were administered as 1% gum acacia suspension daily for a period of 14 days. At the end of 14 days after the last dose, blood glucose levels were again measured and the percent reduction in blood glucose was measured for all the rats in all the groups with respect to the initial reading before drug administration.

COc1ccc(Cl)cc1C(=O)NCCc1ccc(S(=O)(=O)NC(=O)NC2CCCCC2)cc1 [Glibenclamide]
percent inhibition of glucose [1]: 65.1%
hypoglycemic activity expressed as percent inhibition of blood glucose levels [2]: 68.2%

Source: patent publication US6730704B2, “1-(aryloxy)propionoyl-2-arylsulfonyl hydrazines, process for preparation thereof and use thereof as hypoglycemic agents” (Council of Scientific & Industrial Research, priority 2002, dated 2004)
